These are literature values, as cited in patent US6476071B1, “Correcting polymorphic metabolic dysfunction with (−)-hydroxycitric acid” (priority 2001, dated 2002).

Each structure is given as a SMILES string.

One data set deals with animals. To be noted: 70% glucose diet, as long as 80 days.
In another data set the test system is rats. The settings on record: after a three hour meal.

As to `O=C([O-])CC(O)(C(=O)[O-])C(O)C(=O)[O-].[Na+].[Na+].[Na+]` (stereo not drawn) [trisodium salt of (−)-hydroxycitric acid], in the data set on animals, the “body weight after disappearance of appetite control” value is on record as “maintained a reduced weight”. In addition, the “contents of the stomach, % of control” value with rats is 223 % of control. Besides, the “contents of the stomach” value in the data set with rats (controls 884±145) is on record as 1973±154 dpm×10^3.
